Paper PMC7355663, “Microscale Thermophoresis as a Screening Tool to Predict Melanin Binding of Drugs” (Pharmaceutics, 2020)

Experiments:
[1] = Label-free microscale thermophoresis (MST) melanin binding assay
Protocol: Synthetic melanin was purchased from Sigma Aldrich (#M8631-100 mg). Melanin nanoparticles were prepared as described earlier by Fan et al., and low-binding pipette tips (Maxymum RecoveryTM pipet tips, Corning Incorporated, Salt Lake City, UT, USA) and tubes (No stick microtubes, Alpha Laboratories, Hampshire, UK) were used with both melanin and melanin nanoparticles. Briefly, melanin was dissolved into 1 N NaOH with a concentration of 2 mg/mL and stirred by vortexing. The solution was neutralized by adding an equal volume of 1 N HCl. […] After the final centrifugation, the resulting nanoparticles were suspended into a small volume of sterile water and freeze-dried for 48–72 h (ModulyoD-230, Thermo Savant, Holbrook, NY, USA), and stored at −20 °C until the binding assays.
Melanin binding of each of the 13 model compounds was determined (for the concentrations in the assay, see Table 1). The dilution series of drugs were prepared onto a PCR plate (4titude PCR Plate, Skirted, #4ti-0740, Brooks Life Sciences, Chelmsford, MA, USA) in phosphate buffered saline (PBS, pH 7.4). […] The compound dilutions (10 µL) were transferred into 0.2 mL PCR tube strips (#TBS0201, Bio-Rad Laboratories, Inc., Hercules, CA, USA), and an equal volume of 1 mg/mL melanin nanoparticle dilution was added, resulting in a final melanin concentration of 0.5 mg/mL. At least three biological replicates (individually incubated dilution series) were prepared for each compound (n = 3–5). A reference sample containing only melanin nanoparticles and PBS (pH 7.4) was included in each assay to determine the unbound state in the thermophoresis experiment. Melanin nanoparticles were incubated with the compounds at room temperature for at least 2 h.
After >2 h incubation, the melanin–ligand complexes were mixed gently with a pipette to ensure melanin solution homogeneity and then transferred into capillaries (Monolith NT.115 Premium capillaries, #MOK025, NanoTemper Technologies GmbH, München, Germany). The samples were analyzed with a Monolith NT.115 pico device using MO.Control Software (both from NanoTemper Technologies GmbH, München, Germany) using nano-blue excitation, LED light adjusted to 60% excitation power, and infrared laser (MST power) set to high. […] The equation is based on the Langmuir binding isotherm. […] Equation (1) is a follows:(1) f(c)=Unbound+(Bound−Unbound)×c+c(target)+Kd−(c+c(target)+Kd)^2−4c×c(target)/2c(target) where f(c) is the fraction bound at a given ligand concentration c. Unbound is either the normalized fluorescence signal (Fnorm; MST mode) or raw fluorescence counts (initial fluorescence mode) of the target alone. Bound is either the normalized fluorescence signal or raw fluorescence counts (initial fluorescence mode) of the melanin–ligand complex. Kd is the dissociation constant or binding affinity, and c (target) is the final concentration of the target in the assay.
The normalized fluorescence is the ratio of relative fluorescence of the selected region after heating (hot region) and relative initial fluorescence before the heating (cold region, i.e., relative fluorescence values before the infrared laser was switched on). The MST traces displaying the changes in the relative fluorescence over time (heating) with the selected hot and cold regions are presented in the Supplementary Materials. In the case of ligand-induced changes in the initial raw fluorescence counts, the raw fluorescence counts prior to the heating were used (initial fluorescence mode). If the ligand-induced fluorescence changes were not observed, the normalized fluorescence signals (MST mode) were used to determine the Kd (for additional information, see the Supplementary Materials). […] Affinity Analysis Software.
Kd determination strategies. The Kd values were tested in both initial fluorescence and the above
described MST modes within the MO Affinity Analysis Software (Fig. S1, Table S1) and the Kd values

melanin [2] = assay: in vitro; conditions: pig, pH 7.4
Protocol: (§1) The traditional melanin binding assay was conducted with melanin from the porcine RPE-choroid. We used previously published methods for melanin isolation and drug binding. Fresh melanin suspension and test compound solutions were prepared before each experiment. The melanin suspension (in PBS, pH 7.4) was sonicated in a bath sonicator for 30 min (Elmasonic S 40 H, Elma Schmidbauer GmbH, Singen, Germany) before the experiment. The incubation with test compounds took place at 37 °C on a shaker (220 rpm), and the melanin concentration in the assay was 1 mg/mL (0.15 mg/well). In the control samples, PBS buffer (pH 7.4) was used instead of the melanin suspension. Three individual replicates were made for each experiment. After 20 h incubation, the samples were centrifuged at 20,000× g for 20 min, and supernatant containing the unbound ligand was collected for analysis.
(§2) Samples having an estimated concentration of 0.5 µM or higher were analyzed with ultra-high pressure liquid chromatography (UPLC) (Acquity UPLC, Waters, Milford, MA, USA) with UV detection (Photodiode Array Detector, Waters, MA, USA). The separation was carried out on a Luna Omega Polar C18 (1.6 μm, 2.1 × 50 mm^2) column (Phenomenex) at 30 °C. Injection volume was 4 µL. Gradient mode was used for all the compounds with an acetonitrile/15 mM phosphate buffer (pH 2) mobile phase. Gradient duration was 3−5 min depending on the sample (levofloxacin, terazosin, and papaverine).
(§3) All internal standards, namely levofloxacin D8, terazosin D8, and papaverine D3, were purchased from Toronto Research Chemicals (Toronto, ON, Canada). […] Injection volumes were 0.2 μL for terazosin, 0.3 µL for levofloxacin, and 0.15 µl for papaverine with a flow through needle injection system. The mobile phase consisted of 0.1% formic acid (Merck, Darmstadt, Germany) in ultrapure water (A) and 100% LC–MS grade acetonitrile (Honeywell, Seelze, Germany) (B). […] The gradient for levofloxacin was the same as for papaverine, but the total run time was 6 min. The flow rate was 0.3 mL/min for all the compounds.
(§4) Mass spectrometric measurements were carried out using a Waters Xevo TQ-S triple quadruple mass spectrometer coupled with an electrospray ionization (ESI) on a positive mode for all three compounds. Optimized MS-parameters were as follows: capillary 1.5 kV (terazosin and papaverine), 3.5 kV (levofloxacin), cone voltage 80 V (terazosin) and 8 V (terazosin D8), 22 V (papaverine and papaverine D3), 28 V (levofloxacin and levofloxacin D8), source temperature 150 °C, and desolvation temperature 500 °C (terazosin) or 450 °C (papaverine and levofloxacin). Nitrogen (AGA, Helsinki, Finland) was used as the desolvation gas (1000 L·h^−1 terazosin, 800 L·h^−1 papaverine and levofloxacin) and the cone gas (150 L·h^−1), argon (AGA, Helsinki, Finland) as the collision gas. Multiple reaction monitoring (MRM) mode was employed for quantification. […] The resulting data were analyzed with Waters MassLynx V4.1 software. To consider the effect of melanin on the analyses, separate samples containing only melanin in PBS (with no test compound) were also studied.
(§5) The binding parameters were determined with Sips isotherm (Equation (2)) as described by Manzanares et al.. B = (Bmax × [L]^n)/(Kd^n + [L]^n)(2) where B is the amount of bound drug (nmol·mg^−^1); Bmax is the maximum binding capacity (nmol·mg^−^1); [L] is the free drug concentration (µM); n is the heterogeneity index (assuming heterogeneity of the surface of the melanin particles); and Kd represents the dissociation constant (µM).

[3] = Traditional melanin binding assay (equilibrium binding, Sips isotherm)
Protocol: as §1, §2, §3, §4, §5

melanin [4] = assay: Prediction of unbound ligand fraction in vivo (human RPE-choroid); conditions: human, human RPE-choroid (predicted), 34.8 mg/mL melanin
Protocol: (§6) Unbound ligand fractions in vivo were calculated considering melanin binding as the only driver of nonspecific tissue binding.
(§7) Linear regression was used to describe the relationship between the Kd values obtained with the MST and the predicted unbound ligand fractions in human RPE-choroid obtained with calculations described above.
(§8) The Kd values obtained with MST consider only one class of binding site, whereas the Sips isotherm (the traditional binding assay) depicts different binding energies and binding sites. […] This approach is relevant to evaluate the melanin binding.

[5] = as above; conditions: class by predicted fraction unbound in vivo, human RPE-choroid
Protocol: as §6, §7, §8

[6] = Label-free microscale thermophoresis (MST) melanin binding assay; conditions: Table S2; 80% excitation power; read-out: Kd, initial fluorescence mode

Kd ([1]; 0.5 mg/mL (12.5 µM) melanin nanoparticles, PBS pH 7.4, room temperature, 68% confidence, initial fluorescence mode for compounds marked *, otherwise MST mode, read-out: Kd ± Kd Confidence (MST)): 46.5 ± 40.1 µM | Kd ([1]; Table S2, normalized fluorescence, 60% excitation power, read-out: Kd, MST mode (Fnorm)): 47 µM | fraction unbound at 20 h, 1 µM (melanin [2]): 0.28 | Target Capacity ± SE, traditional method (Sips isotherm) ([3]; Bmax multiplied with 0.5 mg/mL melanin concentration of the MST assay): 36 ± 5.5 µM | n ± SE, traditional method (Sips isotherm) ([3]; heterogeneity index, 1 mg/mL melanin, PBS pH 7.4, 37 °C, 20 h): 0.73 ± 0.02 | Bmax ± SE, traditional method (Sips isotherm) ([3]; maximum binding capacity, 1 mg/mL melanin, PBS pH 7.4, 37 °C, 20 h): 72 ± 11 nmol/mg | Kd ([3]; read-out: Kd ± SE, traditional method (Sips isotherm), 1 mg/mL melanin, PBS pH 7.4, 37 °C, 20 h): 157 ± 56 µM | fraction unbound at 1 µM (melanin [4]): 0.0033 | Kd [6]: 54 µM
Compound: C[C@H]1COc2c(N3CCN(C)CC3)c(F)cc3c(=O)c(C(=O)O)cn1c23 [Levofloxacin]
Melanin binding class based on traditional assay [5]: high
